EC50 data for 24 molecules are collected here from patent US20230079045A1 (priority 2019, published 2023).

One assay concerns IFV A/PR/8/34. The experiment in a line: cytopathic effect (CPE) antiviral test in MDCK cells, IFV A/PR/8/34. The assay is classed as cell-based, influenza virus. The conditions noted are these: MDCK cells, CPE method, CCK-8 cell viability, 5 days; read-out: EC50(IFV A/PR/8/34). In general terms: Protection from cytopathic effect is a common read-out in antiviral testing.
Turning to `Cn1cncc1-c1ccc2nc(-c3ccnc(C(=O)N4CCN(C(c5ccccc5)c5nnn(C(F)F)n5)CC4)c3)oc2c1` (racemic) [Compound 160, (R/S)-(4-((2-(difluoromethyl)-2H-tetrazol-5-yl)(phenyl)-13-methyl)piperazin-1-yl)(4-(6-(1-methyl-1H-imidazol-5-yl)benzo[d]oxazol-2-yl)pyridin-2-yl)methanone], the EC50 was found to be 18 nM.

The same assay, now with this note: unidentified influenza virus, PR/8, MDCK, 120 h, read-out: EC50(IFV A/PR/8/34).
As for `Cc1nnn(C(c2ccccc2)C2CCN(C(=O)c3cc(-c4nc5cc(NC(=O)C(C)(C)F)ccc5o4)ccn3)CC2)n1` (racemic) [Compound 135, (R/S)-2-fluoro-2-methyl-N-(2-(2-(4-((5-methyl-2H-tetrazol-2-yl)(phenyl)methyl)piperidine-1-carbonyl)pyridin-4-yl)benzo[d]oxazol-5-yl)propanamide], the EC50 was determined as 23 nM.
Still for that read-out and setting: the value for `CC(C)(F)C(=O)Nc1ccc2oc(-c3ccnc(C(=O)N4CCC(C(c5ccccc5)n5nnc(C(F)F)n5)CC4)c3)nc2c1` (racemic) [Compound 164, (R/S)—N-(2-(2-(4-((5-(difluoromethyl)-2H-tetrazol-2-yl)(phenyl)methyl)piperidine-1-carbonyl)pyridin-4-yl)benzo[d]oxazol-5-yl)-2-fluoro-2-methylpropanamide] was 13 nM.
Same read-out and setting: in the case of `Cn1ccc(-c2ccc3oc(-c4ccnc(C(=O)N5CCN(C(c6ccccc6)c6nnn(C(F)F)n6)CC5)c4)nc3c2)n1` (racemic) [Compound 153, (R/S)-(4-((2-(difluoromethyl)-2H-tetrazol-5-yl)(phenyl)methyl)piperazin-1-yl)(4-(5-(1-methyl-1H-pyrazol-3-yl)benzo[d]oxazol-2-yl)pyridin-2-yl)methanone] it was 7 nM; in that of `Cc1nnn(C(c2ccccc2)C2CCN(C(=O)c3cc(-c4nc5cc(NC(=O)[C@H]6C[C@H]6F)ccc5o4)ccn3)CC2)n1` (mixture of isomers) [Compound 185, (1R,2R)-2-fluoro-N-(2-(2-(4-((R/S)-(5-methyl-2H-tetrazol-2-yl)(phenyl)methyl)piperidine-1-carbonyl)pyridin-4-yl)benzo[d]oxazol-5-yl)cyclopropanecarboxamide], 24 nM; in that of `O=C(c1cc(-c2cc3cc(NC(=O)C4(F)CC4)ccc3o2)ccn1)N1CCN(C(c2ccccc2)c2nnn(C(F)F)n2)CC1` (racemic) [Compound 143, (R/S)—N-(2-(2-(4-((2-(difluoromethyl)-2H-tetrazol-5-yl)(phenyl)methyl)piperazine-1-carbonyl)pyridin-4-yl)benzofuran-5-yl)-1-fluorocyclopropane-1-carboxamide], 13 nM.
Still for that read-out and setting: in the case of `Cn1cncc1-c1ccc2oc(-c3ccnc(C(=O)N4CCN(C(c5ccccc5)c5nnn(C(F)F)n5)CC4)c3)nc2c1` (racemic) [Compound 126, (R/S)-(4-((2-(difluoromethyl)-2H-tetrazol-5-yl)(phenyl)methyl)piperazin-1-yl)(4-(5-(1-methyl-1H-imidazol-5-yl)benzo[d]oxazol-2-yl)pyridin-2-yl)methanone] it was 1 nM.
`Cc1nnn(C(c2ccccc2)C2CCN(C(=O)c3cc(-c4nc5cc(-c6cnn(C)c6C)ccc5o4)ccn3)CC2)n1` (racemic) [Compound 187, (R/S)-(4-(5-(1,5-dimethyl-1H-pyrazol-4-yl)benzo[d]oxazol-2-yl)pyridin-2-yl)(4-((5-methyl-2H-tetrazol-2-yl)(phenyl)methyl)piperidin-1-yl)methanone]: the EC50 was 6 nM.
On the same count and under the same terms, the value for `Cc1nnn(C(c2ccccc2)C2CCN(C(=O)c3cc(-c4nc5cc(NC(=O)[C@H]6C[C@@H]6F)ccc5o4)ccn3)CC2)n1` (mixture of isomers) [Compound 184, (1R,2S)-2-fluoro-N-(2-(2-(4-((R/S)-(5-methyl-2H-tetrazol-2-yl)(phenyl)methyl)piperidine-1-carbonyl)pyridin-4-yl)benzo[d]oxazol-5-yl)cyclopropanecarboxamide] was 14 nM; that for `CC(C)n1cc(-c2ccc3oc(-c4ccnc(C(=O)N5CCN(C(c6ccccc6)c6nnn(C(F)F)n6)CC5)c4)nc3c2)cn1` (racemic) [Compound 146, (R/S)-(4-((2-(difluoromethyl)-2H-tetrazol-5-yl)(phenyl)methyl)piperazin-1-yl)(4-(5-(1-isopropyl-1H-pyrazol-4-yl)benzo[d]oxazol-2-yl)pyridin-2-yl)methanone] was 26 nM.
The same measure, in the same setting: the value for `Cc1nnn(C(c2ccccc2)C2CCN(C(=O)c3cc(-c4cc5cc(-c6cncn6C)ccc5o4)ccn3)CC2)n1` (racemic) [Compound 186, (R/S)-(4-(5-(1-methyl-1H-imidazol-5-yl)benzofuran-2-yl)pyridin-2-yl)(4-((5-methyl-2H-tetrazol-2-yl)(phenyl)methyl)piperidin-1-yl)methanone] was 2 nM; that for `O=C(c1cc(-c2nc3cc(-c4cncn4C(F)F)ccc3o2)ccn1)N1CCC(C(c2ccccc2)n2nnc(CO)n2)CC1` (racemic) [Compound 206, (R/S)-(4-(5-(1-(difluoromethyl)-1H-imidazol-5-yl)benzo[d]oxazol-2-yl)pyridin-2-yl)(4-((5-(hydroxymethyl)-2H-tetrazol-2-yl)(phenyl)methyl)piperidin-1-yl)methanone] was 4.5 nM; that for `Cn1nccc1-c1ccc2oc(-c3ccnc(C(=O)N4CCN(C(c5ccccc5)c5nnn(C(F)F)n5)CC4)c3)nc2c1` (racemic) [Compound 152, (R/S)-(4-((2-(difluoromethyl)-2H-tetrazol-5-yl)(phenyl)methyl)piperazin-1-yl)(4-(5-(1-methyl-1H-pyrazol-5-yl)benzo[d]oxazol-2-yl)pyridin-2-yl)methanone] was 5 nM.
Same read-out and setting: the value for `Cc1nnn(C(c2ccccc2)C2CCN(C(=O)c3cc(-c4nc5cc(-c6cncn6C)ccc5o4)ccn3)CC2)n1` (racemic) [Compound 167, (R/S)-(4-(5-(1-methyl-1H-imidazol-5-yl)benzo[d]oxazol-2-yl)pyridin-2-yl)(4-((5-methyl-2H-tetrazol-2-yl)(phenyl)methyl)piperidin-1-yl)methanone] was 5 nM.
On to `O=C(Nc1ccc2nc(-c3ccnc(C(=O)N4CCN(C(c5ccccc5)c5nnn(C(F)F)n5)CC4)c3)oc2c1)[C@@H]1C[C@@H]1F` (mixture of isomers) [Compound 93, (1S,2S)—N-(2-(2-(4-((R/S)-(2-(difluoromethyl)-2H-tetrazol-5-yl)(phenyl)methyl)piperazine-1-carbonyl)pyridin-4-yl)benzo[d]oxazol-6-yl)-2-fluorocyclopropane-1-carboxamide], for which the EC50 was 16 nM.
Turning to `O=C(c1cc(-c2nc3cc(-c4cn(C(F)F)cn4)ccc3o2)ccn1)N1CCC(C(c2ccccc2)n2nnc(CO)n2)CC1` (stereo not drawn) [Compound 217, (4-(5-(1-(difluoromethyl)-1H-imidazol-4-yl)benzo[d]oxazol-2-yl)pyridin-2-yl)(4-((5-(hydroxymethyl)-2H-tetrazol-2-yl)(phenyl)methyl)piperidin-1-yl)methanone], the EC50 was determined as 3.3 nM.
Still for that read-out and setting: in the case of `COCc1nnn(C(c2ccccc2)C2CCN(C(=O)c3cc(-c4nc5cc(NC(=O)[C@@H]6C[C@@H]6F)ccc5o4)ccn3)CC2)n1` (mixture of isomers) [Compound 200, (1S,2S)-2-fluoro-N-(2-(2-(4-((R/S)-(5-(methoxymethyl)-2H-tetrazol-2-yl)(phenyl)methyl)piperidine-1-carbonyl)pyridin-4-yl)benzo[d]oxazol-5-yl)cyclopropane-1-carboxamide] it was 2.1 nM.
On the same count and under the same terms, in the case of `Cn1cnc(-c2ccc3oc(-c4ccnc(C(=O)N5CCN(C(c6ccccc6)c6nnn(C(F)F)n6)CC5)c4)nc3c2)c1` (racemic) [Compound 147, (R/S)-(4-((2-(difluoromethyl)-2H-tetrazol-5-yl)(phenyl)methyl)piperazin-1-yl)(4-(5-(1-methyl-1H-imidazol-4-yl)benzo[d]oxazol-2-yl)pyridin-2-yl)methanone] it was 14 nM.
As to `Cc1n[nH]cc1-c1ccc2oc(-c3ccnc(C(=O)N4CCN(C(c5ccccc5)c5nnn(C(F)F)n5)CC4)c3)nc2c1` (racemic) [Compound 155, (R/S)-(4-((2-(difluoromethyl)-2H-tetrazol-5-yl)(phenyl)methyl)piperazin-1-yl)(4-(5-(3-methyl-1H-pyrazol-4-yl)benzo[d]oxazol-2-yl)pyridin-2-yl)methanone], the EC50 came out at 1 nM.
Same read-out and setting: the value for `O=C(c1cc(-c2nc3cc(-c4cnoc4)ccc3o2)ccn1)N1CCN(C(c2ccccc2)c2nnn(C(F)F)n2)CC1` (racemic) [Compound 174, (R/S)-(4-((2-(difluoromethyl)-2H-tetrazol-5-yl)(phenyl)methyl)piperazin-1-yl)(4-(5-(isoxazol-4-yl)benzo[d]oxazol-2-yl)pyridin-2-yl)methanone] was 15 nM; that for `Cn1cncc1-c1ccc2oc(-c3ccnc(C(=O)N4CCC(C(c5ccccc5)n5nnc(C(F)F)n5)CC4)c3)nc2c1` (racemic) [Compound 166, (R/S)-(4-((5-(difluoromethyl)-2H-tetrazol-2-yl)(phenyl)methyl)piperidin-1-yl)(4-(5-(1-methyl-1H-imidazol-5-yl)benzo[d]oxazol-2-yl)pyridin-2-yl)methanone] was 6 nM; that for `Cc1nnn([C@@H](c2ccccc2)C2CCN(C(=O)c3cc(-c4cc5cc(NC(=O)[C@@H]6C[C@@H]6F)ccc5o4)ccn3)CC2)n1` [Compound 139, (1S,2S)-2-fluoro-N-(2-(2-(4-((R)-(5-methyl-2H-tetrazol-2-yl)(phenyl)methyl)piperidine-1-carbonyl)pyridin-4-yl)benzofuran-5-yl)cyclopropanecarboxamide] was 4 nM.
Still for that read-out and setting: in the case of `Cc1nnn(C(c2ccccc2)C2CCN(C(=O)c3cc(-c4cc5cc(NC(=O)C6(F)CC6)ccc5o4)ccn3)CC2)n1` (racemic) [Compound 144] it was 7 nM; in that of `[2H]C([2H])([2H])C(C(=O)Nc1ccc2oc(-c3ccnc(C(=O)N4CCN([C@H](c5ccccc5)c5nnn(C(F)F)n5)CC4)c3)cc2c1)C([2H])([2H])[2H]` [Compound 136, 3,3,3-trideuterio-N-[2-[2-[4-[(R)-[2-(difluoromethyl)tetrazol-5-yl]-phenyl-methyl]piperazine-1-carbonyl]-4-pyridyl]benzofuran-5-yl]-2-(trideuteriomethyl)propanamide], 8 nM.
